“Also recorded” adds a separate entry of the source.
Tests used:
Type in all cases: cell-based
P2Y6 [1] = target: T1, P2Y6 (Homo sapiens, UniProt Q15077); test: Agonist-induced receptor internalization, cell surface ELISA; design: expressed in transfected cells; host or cells: HEK293; details: Fig. 5e
Experimental: To estimate cell surface expression of heterologously expressed receptors carrying an N-terminal HA tag, an indirect cellular ELISA was used[57]. To determine the endogenous cell surface expression of P2Y6, the same ELISA procedure was performed with minor modifications. Briefly, after 4% paraformaldehyde fixation and blocking with 10% FBS, cells were incubated with the primary anti-P2Y6 antibody (sc-15215; Santa Cruz Biotechnology, USA) in 1:1,000 dilution for 1 h. After washing with PBS, cells were incubated with peroxidase-conjugated secondary antibody anti-goat IgG (sc-2020, Santa Cruz Biotechnology, USA) in 1:5,000 dilutions.

P2Y6 [2] = target: T1, P2Y6; test: Functional readouts at P2Y6, summary statements; details: Fig. 5a–d
P2Y6 [3] = target: T1, P2Y6; test: IP1 accumulation assay in HEK293 cells transfected with wildtype P2RY6; design: expressed in transfected cells; host or cells: HEK293; details: HEK293 stably transfected with P2RY6, increasing antagonist concentrations, Fig. 5a,b
Experimental: To measure intracellular IP3 the HitHunter® Inositol (1,4,5) Triphosphate Assay (DiscoveRx, USA) was used according to manufacturer′s protocol. HEK293 cells stably transfected with hP2RY6 were seeded in a 384-well Black microtiter plate (15,000 cells/well) (Greiner Bio One, Germany) and incubated with indicated concentrations of UDP and PGE2-G for 20 seconds. Reaction was stopped by adding 5 µl 0.2 N perchloric acid and measurement of IP3 was performed with the Fusion AlphaScreen multilabel reader (PerkinElmer Life Sciences) according to manufacturer′s protocol. To measure IP1, HEK293 cells expressing wildtype and mutant P2Y6 were seeded into 384-well plates (5,000 cells/well) 24 h prior assay. After aspiration of the medium, cells were incubated with indicated concentrations of agonists/antagonist for 1 h. IP1 measurements using the IP-one HTFR® assay kit (Cisbio assays, USA) were performed according to manufacturer′s protocol. The assays were performed with a final concentration of 1% DMSO.

P2Y6 [4] = target: T1, P2Y6; test: Intracellular Ca2+ measurement in HEK293 cells transfected with P2RY6; design: expressed in transfected cells; host or cells: HEK293; details: HEK293 stably transfected with P2RY6, Fig. 5c,d
Experimental: (§1) RAW264.7 cells were grown in DMEM supplemented with 10% FBS, A7r5 (rat […]) cells in DMEM with 10% FBS, and A431 (human squamous carcinoma) cells in RPMI supplemented with 10% FBS. All cell lines were grown at 37 °C in a humidified 5% CO2 incubator. For functional assays, receptor constructs were heterologously expressed in human embryonic kidney (HEK293) cells upon transient or stable transfection. Cells were grown in DMEM/F12 supplemented with 10% FBS, 100 units/ml penicillin, and 100 µg/ml streptomycin. For the cAMP-inhibition assay, ERK1/2 phosphorylation assay, and Ca^2+ mobilization assay, cells were split into 96-well plates (2.0 × 10^4 cells/well) and transfected with 250 ng vector construct using MACSfectin™ (Miltenyi Biotec, Germany) according to manufacturer’s protocol. Empty vector (mock) served as the negative control. For siRNA experiments, cells were seeded in 6-well plates (4.0 × 10^5 and 6.0 × 10^5 cells/well for RAW264.7 and H1819, respectively). RAW264.7 and H1819 cells were transfected with 150 pMol of mP2RY6 siRNA and hP2RY6 siRNA (Santa Cruz Biotechnology, USA), respectively, using Viromer® Blue (Lipocalyx, Germany). As a negative control, control siRNA-A (Santa Cruz Biotechnology, USA) was used. FITC-labelled siRNA served as a transfection control.
To generate a cell line stably expressing P2Y6, HEK293 cells were seeded in 6-well plates (7.5 × 10^5 cells/well) and transfected with 3 µg vector using MACSfectin™ as transfection regent according to the manufacturer’s protocol. The pIRES-eGFP vector served as negative control. Stably transfected HEK293 cells were cultured in the presence of geneticin (500 µg/ml) for selection.
(§2) For fluorometric measurements of intracellular Ca^2+ levels with the FlexStationII instrument (Molecular Devices), RAW264.7 and H1819 cells were seeded into 96-well plates (3.0 × 10^4 cells/well) 24 h prior to assay. Ca^2+ measurements with transiently transfected HEK293 cells were performed 48 h after transfection. Cells were loaded with 200 µl Calcium 5 reagent (Explorer Kit, Molecular Devices, USA) for 60 min at 37 °C, and the assay was performed as described. Agonists and inhibitors were solved in DMSO (100x) and diluted […] in 96-well compound plates containing HBSS. 50 µl of compound solution were added to the assay plate resulting in final concentration of 1% DMSO. Fold-response was calculated by RFUmax − RFUmin (ligand)/RFUmax − RFUmin (vehicle). EC50 values were calculated by using GraphPad Prism6 software (GraphPad, USA).

[5] = target: T2, cannabinoid receptor 2 (Cnr2) (Homo sapiens, UniProt P34972); test: Intracellular Ca2+ measurement in CNR2-transfected HEK293 cells; details: 200 nM of 2-AG, Fig. 2c
T2 construct: expressed in transfected cells; host or cells: HEK293
T2 sequence (P34972 whole entry): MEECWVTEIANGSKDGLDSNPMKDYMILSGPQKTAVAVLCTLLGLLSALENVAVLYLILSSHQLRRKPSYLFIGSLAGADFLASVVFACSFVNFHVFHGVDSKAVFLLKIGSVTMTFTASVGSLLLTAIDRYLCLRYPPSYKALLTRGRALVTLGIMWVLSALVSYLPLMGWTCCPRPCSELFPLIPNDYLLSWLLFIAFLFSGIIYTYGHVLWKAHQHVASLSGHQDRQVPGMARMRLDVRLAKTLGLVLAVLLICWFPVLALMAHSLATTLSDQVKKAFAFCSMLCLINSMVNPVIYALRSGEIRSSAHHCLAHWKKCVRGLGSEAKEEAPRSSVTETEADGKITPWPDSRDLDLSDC
Experimental: as §1, with “RAW264.7 and H1819 cells were transfected with 150 pMol of mP2RY6 siRNA and hP2RY6 siRNA (Santa Cruz Biotechnology, USA), respectively, using Viromer® Blue (Lipocalyx, Germany). As a negative control, control siRNA-A (Santa Cruz Biotechnology, USA) was used. FITC-labelled siRNA served as a transfection control.” left out
For fluorometric measurements of intracellular Ca^2+ levels with the FlexStationII instrument (Molecular Devices), RAW264.7 and H1819 cells were seeded into 96-well plates (3.0 × 10^4 cells/well) 24 h prior to assay. […] Fold-response was calculated by RFUmax − RFUmin (ligand)/RFUmax − RFUmin (vehicle). EC50 values were calculated by using GraphPad Prism6 software (GraphPad, USA).

P2Y1 = target: T3, P2Y1 (Homo sapiens, UniProt P47900); test: Intracellular Ca2+ release in HEK293 cells transfected with P2RY1; details: HEK293 transfected with P2RY1, Fig. 3f
T3 construct: expressed in transfected cells; host or cells: HEK293
T3 sequence (P47900 whole entry, species assumed): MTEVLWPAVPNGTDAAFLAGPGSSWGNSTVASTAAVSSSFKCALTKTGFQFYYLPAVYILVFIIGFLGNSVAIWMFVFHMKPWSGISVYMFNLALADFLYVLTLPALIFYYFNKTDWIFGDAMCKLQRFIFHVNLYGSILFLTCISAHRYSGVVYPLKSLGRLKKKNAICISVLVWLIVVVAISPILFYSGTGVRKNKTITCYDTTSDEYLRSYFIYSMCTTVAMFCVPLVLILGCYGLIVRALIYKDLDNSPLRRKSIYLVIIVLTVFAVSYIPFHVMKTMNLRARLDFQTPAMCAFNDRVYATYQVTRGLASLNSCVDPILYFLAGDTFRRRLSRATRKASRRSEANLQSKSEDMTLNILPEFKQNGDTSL
Experimental: as §2

P2Y12 = target: T4, P2Y12 (Homo sapiens, UniProt Q9H244); test: Intracellular Ca2+ release in HEK293 cells transfected with P2RY12; details: HEK293 transfected with P2RY12, Fig. 3f
T4 construct: expressed in transfected cells; host or cells: HEK293
T4 sequence (Q9H244 whole entry, species assumed): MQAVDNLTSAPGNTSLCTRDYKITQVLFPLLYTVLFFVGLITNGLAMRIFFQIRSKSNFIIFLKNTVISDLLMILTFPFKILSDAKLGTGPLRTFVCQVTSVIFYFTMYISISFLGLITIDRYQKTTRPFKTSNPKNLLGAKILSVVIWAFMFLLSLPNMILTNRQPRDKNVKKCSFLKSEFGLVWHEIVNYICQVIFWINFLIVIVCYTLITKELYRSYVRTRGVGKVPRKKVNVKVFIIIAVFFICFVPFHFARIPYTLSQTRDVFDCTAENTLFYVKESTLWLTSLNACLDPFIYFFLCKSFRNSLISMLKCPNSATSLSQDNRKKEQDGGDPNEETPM
Experimental: as §2

T1 sequence (Q15077 whole entry): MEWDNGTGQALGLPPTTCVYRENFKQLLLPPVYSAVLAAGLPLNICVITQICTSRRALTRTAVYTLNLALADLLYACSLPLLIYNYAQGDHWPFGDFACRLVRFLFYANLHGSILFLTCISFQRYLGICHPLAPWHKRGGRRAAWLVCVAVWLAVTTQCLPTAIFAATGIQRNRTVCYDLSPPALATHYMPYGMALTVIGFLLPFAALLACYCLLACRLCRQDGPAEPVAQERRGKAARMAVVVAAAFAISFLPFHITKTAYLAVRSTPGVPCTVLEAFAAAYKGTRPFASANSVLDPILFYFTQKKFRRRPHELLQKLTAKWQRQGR

## S=C=Nc1cccc(NC(=S)NCCCCNC(=S)Nc2cccc(N=C=S)c2)c1 [MRS2578]
P2Y6 [1]
  effect of antagonist on agonist-induced internalization: blocked the internalization
P2Y6 [2]
  mode of antagonism: antagonist with mixed properties (competitive and non-competitive)
P2Y6 [3]
  effect of antagonist on UDP- and PGE2-G-triggered IP1 accumulation: reduced both the efficacies and potencies; also recorded: reduced both, the efficacies and potencies
P2Y6 [4]
  effect of antagonist on UDP- and PGE2-G-triggered Ca2+ release: same effects; also recorded: reduced both, the efficacies and potencies

## CCCCC/C=C\C/C=C\C/C=C\C/C=C\CCCC(=O)OC(CO)CO [2-AG, 2-arachidonoylglycerol]
[5]
  effect on intracellular Ca2+: robust intracellular Ca^2+ increase; also recorded: elevated intracellular Ca^2+

## Nc1ncnc2c1ncn2[C@@H]1O[C@H](COP(=O)(O)OP(=O)(O)O)[C@@H](O)[C@H]1O [ADP]
P2Y1
  Ca2+ release: led to Ca^2+ release
P2Y12
  Ca2+ release: led to Ca^2+ release

Reference: PMC5443783, “Prostaglandin E2 glyceryl ester is an endogenous agonist of the nucleotide receptor P2Y6” (Scientific Reports, 2017)
